The test system of data set [1] is MC3T3-E1. The data set can be described thus: Osteogenic activity in mouse MC3T3-E1 cells assessed as increase in ALP activity at 30 uM measured after 4 days relative to control. It counts as functional.
Data set [2] concerns MC3T3-E1. The data set can be described thus: Osteogenic activity in mouse MC3T3-E1 cells assessed as increase in mineralization at 30 uM measured after 10 days by alizarin red S staining based assay. It counts as functional, cell-based.
For data set [3], the system named is MC3T3-E1. The data set is described as follows: Cytotoxicity against mouse MC3T3-E1 cells assessed as cell number at 30 uM measured after 4 days by WST-8 assay relative to control. It counts as cell-based. The following applies: mc3t3-e1, 96 h. (In general: Formazan colour is commonly taken as a measure of viable cells.)
Data set [4] relates to MC3T3-E1. The data set is described as follows: Osteogenic activity in mouse MC3T3-E1 cells assessed as increase in mineralization at 30 uM measured after 10 days in presence of BMP2 inhibitor noggin by alizarin red S staining based assay. It counts as functional, cell-based.
Data set [5] has as its system MC3T3-E1. The data set can be described thus: Osteogenic activity in mouse MC3T3-E1 cells assessed as increase in mineralization at 30 uM measured after 10 days in presence of type-1 BMP receptor kinase inhibitor LDN-193189 by alizarin red S staining based assay. It counts as functional, cell-based.
Data set [6] has as its system RAW264. The data set can be described thus: Inhibition of RANKL-stimulated osteoclastogenesis in mouse RAW264 cells assessed as reduction in TRAP activity at 20 uM measured after 72 hrs by microscopic analysis. It counts as functional, cell-based.
The species named for data set [7] is Mus musculus. The data set can be described thus: Activation of BMP signaling pathway in mouse MC3T3-E1 cells assessed as increase in Runx2 mRNA expression after 2 days by SYBR green-dye based RT-PCR method. It counts as cell-based.
Data set [8] is filed under the species Mus musculus. The data set can be described thus: Activation of BMP signaling pathway in mouse MC3T3-E1 cells assessed as increase in Osterix mRNA expression after 2 days by SYBR green-dye based RT-PCR method. In kind it is cell-based.
Data set [9] is filed under the species Mus musculus. The data set can be described thus: Activation of BMP signaling pathway in mouse MC3T3-E1 cells assessed as increase in Alpl mRNA expression after 2 days by SYBR green-dye based RT-PCR method. In kind it is cell-based.
The species entered for data set [10] is Mus musculus. The data set can be described thus: Activation of BMP signaling pathway in mouse MC3T3-E1 cells assessed as increase in Bglap mRNA expression after 2 days by SYBR green-dye based RT-PCR method. In kind it is cell-based.
Data set [11] is filed under the species Mus musculus. The data set can be described thus: Activation of BMP signaling pathway in mouse MC3T3-E1 cells assessed as increase in Runx2 mRNA expression at 10 uM after 2 days by SYBR green-dye based RT-PCR method relative to control. In kind it is cell-based.
The species entered for data set [12] is Mus musculus. The data set can be described thus: Activation of BMP signaling pathway in mouse MC3T3-E1 cells assessed as increase in Osterix mRNA expression at 10 uM after 2 days by SYBR green-dye based RT-PCR method relative to control. It counts as cell-based.
For data set [13], the species on record is Mus musculus. The data set is described as follows: Activation of BMP signaling pathway in mouse MC3T3-E1 cells assessed as increase in Alpl mRNA expression at 10 uM after 2 days by SYBR green-dye based RT-PCR method relative to control. In kind it is cell-based.
The species named for data set [14] is Mus musculus. The data set is described as follows: Activation of BMP signaling pathway in mouse MC3T3-E1 cells assessed as increase in Bglap mRNA expression at 10 uM after 2 days by SYBR green-dye based RT-PCR method relative to control. In kind it is cell-based.
The target of data set [15] is T1, MAP kinase p38 (Mus musculus) (UniProt P47811+O08911+Q9WUI1+Q9Z1B7). The data set is described as follows: Induction of p38 MAPK phosphorylation in mouse MC3T3-E1 cells assessed as ratio of phosphorylated p38 to unphosphorylated p38 protein level at 30 uM measured after 5 mins by Western blot analysis relative to control. In kind it is cell-based. For orientation: In western blotting, separated proteins are transferred to a membrane and probed.

Data set [16] deals with T2, SMAD1/5/9 (Mus musculus) (UniProt P70340+P97454+Q9JIW5). The data set can be described thus: Induction of Smad1/5/8 phosphorylation in mouse MC3T3-E1 cells assessed as ratio of phosphorylated Smad1/5/8 to actin beta protein level at 30 uM measured after 5 mins by Western blot analysis relative to control. It counts as cell-based.
The test system of data set [17] is MC3T3-E1. The data set can be described thus: Osteogenic activity in mouse MC3T3-E1 cells assessed as increase in mineralization at 30 uM measured after 10 days in presence of p38 MAPK inhibitor SB203580 by alizarin red S staining based assay. In kind it is functional, cell-based.
Data set [18] concerns RAW264. The data set can be described thus: Inhibition of RANKL-stimulated osteoclastogenesis in mouse RAW264 cells assessed as reduction in TRAP-positive multinucleated cells at 20 uM measured after 72 hrs by TRAP staining based microscopic analysis. It counts as functional, cell-based.
For data set [19], the target named is T1, MAP kinase p38 (Mus musculus). The data set can be described thus: Induction of p38 MAPK phosphorylation in mouse MC3T3-E1 cells assessed as ratio of phosphorylated p38 to unphosphorylated p38 protein level at 30 uM measured after 15 mins by Western blot analysis relative to control. It counts as cell-based.
The target is the same in data set [20]. The data set is described as follows: Induction of p38 MAPK phosphorylation in mouse MC3T3-E1 cells assessed as ratio of phosphorylated p38 to unphosphorylated p38 protein level at 30 uM measured after 30 mins by Western blot analysis relative to control. In kind it is cell-based.
Data set [21] concerns the target T2, SMAD1/5/9 (Mus musculus). The data set can be described thus: Induction of Smad1/5/8 phosphorylation in mouse MC3T3-E1 cells assessed as ratio of phosphorylated Smad1/5/8 to actin beta protein level at 30 uM measured after 15 mins by Western blot analysis relative to control. It counts as cell-based.
Data set [22] deals with T2, SMAD1/5/9 (Mus musculus). The data set is described as follows: Induction of Smad1/5/8 phosphorylation in mouse MC3T3-E1 cells assessed as ratio of phosphorylated Smad1/5/8 to actin beta protein level at 30 uM measured after 30 mins by Western blot analysis relative to control. In kind it is cell-based.
Data set [23] concerns MC3T3-E1. The data set can be described thus: Osteogenic activity in mouse MC3T3-E1 cells assessed as increase in ALP activity at 60 uM measured after 4 days relative to control. In kind it is functional.
Data set [24] concerns MC3T3-E1. The data set can be described thus: Osteogenic activity in mouse MC3T3-E1 cells assessed as increase in mineralization at 60 uM measured after 10 days by alizarin red S staining based assay. In kind it is functional, cell-based.
The test system of data set [25] is MC3T3-E1. The data set is described as follows: Osteogenic activity in mouse MC3T3-E1 cells assessed as increase in mineralization at 0.1 to 60 uM measured after 10 days by alizarin red S staining based assay. In kind it is functional, cell-based.
Data set [26] concerns MC3T3-E1. The data set can be described thus: Cytotoxicity against mouse MC3T3-E1 cells assessed as cell number at 60 uM measured after 4 days by WST-8 assay relative to control. In kind it is cell-based. The following applies: mc3t3-e1, 96 h.

The text below walks through data of ChEMBL document CHEMBL4017476, “Synthesis of novel 5,6-dehydrokawain analogs as osteogenic inducers and their action mechanisms” (Bioorg Med Chem Lett, 2017).

Each structure is given as a SMILES string. The source made the active and inactive calls. No cut-off for these calls is given here.

For `CCOc1ccc(/C=C/c2cc(OC)cc(=O)o2)cc1`, the results for the “fold change (FC)” value with MC3T3-E1 [1] and with MC3T3-E1 [3] were 1.32 - 2.87 and 0.85 to 1.25, respectively. The outcome with MC3T3-E1 [2] was Active.

Take `COc1ccc(/C=C/c2cc(OC)cc(=O)o2)cc1` [YANGONIN]: the result with MC3T3-E1 [1] and in the data set on MC3T3-E1 [2] was inactive. Also, in the data set with MC3T3-E1 [3], the fold change (FC) was in the range of 0.85 to 1.25.

As for `CCc1ccc(/C=C/c2cc(OC)cc(=O)o2)cc1`, the result in the data set on MC3T3-E1 [4], in the data set on MC3T3-E1 [5] and in the data set with MC3T3-E1 [17] was inactive. In addition, the inhibition result in the data set on RAW264 [6] and with RAW264 [18] was “Active” in each case. Further, the “fold change (FC)” value is 1.32 - 2.87 with MC3T3-E1 [1]; 0.85 to 1.25 in the data set on MC3T3-E1 [3]; 1.5 in the data set listed under Mus musculus [11]; 2.61 in the data set filed under Mus musculus [12]; 2.23 in the data set filed under Mus musculus [13]; 1.92 in the data set listed under Mus musculus [14]. Also, in the data set on MC3T3-E1 [2], the result was Active. Moreover, the Activity result in the data set listed under Mus musculus [7], in the data set listed under Mus musculus [8], in the data set listed under Mus musculus [9] and in the data set listed under Mus musculus [10] was “Dose-dependent effect” throughout. The Ratio in data set [15] turned out to be 1.8; at SMAD1/5/9 (Mus musculus) [16], 1.1; in data set [19] it was 1.7; in data set [20], 1.2; at SMAD1/5/9 (Mus musculus) [21], 1; on SMAD1/5/9 (Mus musculus) [22], 1.

For `COc1cc(/C=C/c2cccc(C)c2)oc(=O)c1`, the outcome in the data set with MC3T3-E1 [1] and in the data set on MC3T3-E1 [2] was Active. In addition, the fold change (FC) in the data set on MC3T3-E1 [3] fell in the range of 0.85 to 1.25.

Consider `COc1cc(/C=C/C2CCCCC2)oc(=O)c1`, for which the “fold change (FC)” value in the data set on MC3T3-E1 [1] is 1.32 - 2.87; in the data set on MC3T3-E1 [3], 0.85 to 1.25. The outcome in the data set with MC3T3-E1 [2] was Active.

In the case of `COc1cc(/C=C/c2ccccc2)oc(=O)c1` [DESMETHOXYYANGONIN], in the data set with RAW264 [6], the inhibition result is “inactive”. The “fold change (FC)” value with MC3T3-E1 [23] is 1.25; in the data set with MC3T3-E1 [3] it was 0.85 to 1.25; in the data set with MC3T3-E1 [26], 0.85 to 1.25. Moreover, the result in the data set with MC3T3-E1 [24] and in the data set with MC3T3-E1 [25] was Active.

Take `COc1cc(/C=C/c2ccccc2)oc(=O)c1C`: the outcome in the data set on MC3T3-E1 [2] and in the data set with MC3T3-E1 [25] was inactive. In addition, the fold change (FC) in the data set on MC3T3-E1 [3] fell in the range of 0.85 to 1.25.

`CCCOc1cc(/C=C/c2ccccc2)oc(=O)c1`: the outcome with MC3T3-E1 [2] and in the data set on MC3T3-E1 [25] was inactive.

As to `COc1cc(/C=C/c2ccc(Cl)cc2)oc(=O)c1`, the figures for the “fold change (FC)” value with MC3T3-E1 [1] and in the data set on MC3T3-E1 [3] were 1.32 - 2.87 and 0.85 to 1.25, respectively. Further, the outcome in the data set with MC3T3-E1 [2] was Active.

Consider `CCOc1cc(/C=C/c2ccccc2)oc(=O)c1`, for which the result in the data set with MC3T3-E1 [2] and with MC3T3-E1 [25] was inactive. For the same compound, the fold change (FC) with MC3T3-E1 [3] lay in the range of 0.85 to 1.25.

In the case of `COc1cc(/C=C/c2ccc(C)cc2)oc(=O)c1`, the result in the data set on MC3T3-E1 [1] and with MC3T3-E1 [2] was Active. Moreover, the fold change (FC) in the data set on MC3T3-E1 [3] was in the range of 0.85 to 1.25.

On to `COc1cc(/C=C/C2CCCC2)oc(=O)c1`, for which the outcome in the data set on MC3T3-E1 [1] and in the data set with MC3T3-E1 [2] was inactive. In addition, the fold change (FC) in the data set on MC3T3-E1 [3] fell in the range of 0.85 to 1.25.
